Tested on: carbon tetrachloride induced liver injury in CLEC1b fl/fl PF4cre mice
Test: Carbon tetrachloride injection in CLEC1b fl/fl PF4cre (KO) mice pre-treated with Etanercept
Type: in vivo, mouse
Settings: for Number of neutrophils per gram of liver tissue: 48 hours after carbon tetrachloride injection
Method: Kupffer cells isolated from WT mouse livers were plated in a tissue culture well, treated with lipopolysaccharide (LPS) and incubated with either platelets from CLEC2 deficient animals or WT platelets. (A) Production of TNF-alpha by Kupffer cells was measured in response to LPS plus either CLEC-2 deficient (KO) platelets or WT platelets (n=4 per group). (B) Isolated Kupffer cells (F480^+, shown in green), were incubated with either CLEC2 deficient or WT platelets (CD41^+, shown in purple). DAPI (blue) was used as a nuclear stain. Representative images (63× magnification) are shown. (C) Serum was isolated from WT and CLEC1b fl/fl PF4cre (KO) mice at 24 hours after carbon tetrachloride injection and serum TNF-alpha levels measured by ELISA. Levels are shown as picograms/ml (n=6/group) (*P<0.05, **P<0.01, ***P<0.001), (D) CLEC1b fl/fl PF4cre mice were pre-treated with an anti-TNF-alpha monoclonal antibody (Etanercept) before carbon tetrachloride injection (KO+AB). WT and CLEC1b fl/fl PF4cre mice not pre-treated before carbon tetrachloride injection were used as controls (WT and KO, accordingly). Mice were sacrificed 48 hours after the carbon tetrachloride injection. […]
Mouse livers were harvested after the animal was euthanized under deep sedation after cardiac puncture. […] The resulting immune cells were then purified using an Optiprep gradient (Sigma) and analysed by flow cytometry. […] Absolute cell counts were determined with AccuCheck Counting Beads (Invitrogen), and the number of cells was normalised to the total liver weight. Data were analysed using a CyAn ADP flow cytometer (Beckman Coulter) or a BD LSRII using Summit version 4.3 or FlowJo version 10.0.7 software where appropriate.
Serum was isolated from whole blood and levels of liver-specific enzymes AST and ALT were measured on a clinical autoanalyser, according to standard protocols in the Biochemistry Department at the Birmingham Women's Hospital, Birmingham, UK. […]

**Q.** Which “Number of neutrophils per gram of liver tissue” value (compared to CLEC1b fl/fl PF4cre mice not pre-treated with antibody (FIG. 3D)) does the source give for Etanercept here?
**A.** substantially reduced

**Q.** What about the “Number of neutrophils per gram of liver tissue” value (pre-treated KO mice relative to WT control (FIG. 3D)) of the same substance?
**A.** comparable to WT control

**Q.** And the “Serum ALT levels” value (48 hours post carbon tetrachloride, compared to CLEC-2 deficient mice not given antibody (FIG. 3E))?
**A.** considerably higher
